This is an account of results in patent publication US11274082B2, “Tead inhibitors and uses thereof” (Ikena Oncology, Inc., priority 2019, dated 2022).

pEC50: −log10 of the molar value.

In one test the test system is H226. In words: Anti-proliferation assay in H226 cells. It counts as cell-based. As to conditions: Homo sapiens, NCI-H226; H226 cells; read-out: H226 EC50. The protocol:
(§1) Certain compounds were tested in TEAD reporter assay, and in H226 and H28. A: EC50<0.1 uM; B: 0.1 uM≤EC50≤0.5 uM; C: EC50>0.5 uM.
Individual cell lines were grown in medium according to supplier instructions and seeded into 96-well plates at a density that ensured logarithmic growth over 72 hours. TEAD inhibitor compounds were administered to cells at a top concentration of 10 μm and subsequently a 10 point 3-fold serial dilution was conducted. After 72 hours, proliferation was quantified using Cell TITERGLO™ (Promega, Inc.) and compared to vehicle control. IC50 and EC50 values were generated using XLFit curve fitting software.

The subject of another test is TEAD. In words: TEAD reporter assay (Hippo Pathway TEAD Reporter - MCF7 cell line, luciferase). The test is classed as cell-based. As to conditions: Homo sapiens; TEAD Reporter - MCF7 cells; read-out: TEAD Reporter Assay EC50.
Source text: TEAD inhibition can be assayed using Hippo Pathway TEAD Reporter—MCF7 Cell Line (BPS Bioscience, Catalog #: 60618).
The TEAD Reporter—MCF7 cell line contains the firefly luciferase gene under the control of TEAD responsive elements stably integrated into the human breast cancer cell line, MCF7. Inside the cells, basal unphosphorylated YAP/TAZ remains in the nucleus and induces the constitutive expression of luciferase reporter. The cell line is validated for the inhibition of the expression of luciferase reporter by the activators of the Hippo pathway.
• 1) Harvest TEAD Reporter—MCF7 cells from culture in growth medium and seed cells at a density of 35,000 cells per well into white clear-bottom 96-well microplate in 45 μl of assay medium. • 2) Incubate cells at 37° C. in a CO2 incubator for overnight. • 3) Dilute the activators (H2O2 or okadaic acid) stock in assay medium. Add 5 μl of diluted activators to the wells. The final concentration of DMSO in assay medium is 0.1%. • 4) Add 5 μl of assay medium with same concentration of DMSO without activator to control wells. • 5) Add 50 μl of assay medium with DMSO to cell-free control wells (for determining background luminescence). • 6) Set up each treatment in at least triplicate. • 7) Incubate cells at 37° C. in a CO2 incubator for 5-6 hours. • 8) Perform luciferase assay using the ONE-Step™ Luciferase Assay System following the protocol provided: Add 100 μl of ONE-Step™ Luciferase reagent per well and rock at room temperature for ˜15 minutes. Measure luminescence using a luminometer. • 9) Data Analysis: Obtain the background-subtracted luminescence by subtracting the average background luminescence (cell-free control wells) from the luminescence reading of all wells.
as §1

Take `CNS(=O)(=O)c1ccc(Nc2cc(C(F)(F)F)ccn2)c(-c2cn(C(C)C)cn2)c1` [I-55, 3-(1-Isopropylimidazol-4-yl)-N-methyl-4-[[4-(trifluoromethyl)-2-pyridyl]amino]benzenesulfonamide]: the pEC50 is greater than 7.00 with H226 and 6.30 to 7.00 in the test on TEAD.

For `CNS(=O)(=O)c1ccc(N[C@H](C)c2ccc(C(F)(F)F)cc2)c(-c2cn(C)cn2)c1` [I-56, N-Methyl-3-(1-methylimidazol-4-yl)-4-[[(1R)-1-[4-(trifluoromethyl)phenyl]ethyl]amino]benzenesulfonamide], the pEC50 in the test on H226 and with TEAD was 6.30 to 7.00 throughout.

As for `CNS(=O)(=O)c1ccc(N[C@@H](C)c2ccc(C(F)(F)F)cc2)c(-c2cn(C)cn2)c1` [I-57, N-Methyl-3-(1-methylimidazol-4-yl)-4-[[(1S)-1-[4-(trifluoromethyl)phenyl]ethyl]amino]benzenesulfonamide], the pEC50 in the test on H226 and in the test on TEAD was less than 6.30 each time.

In the case of `CNS(=O)(=O)c1ccc(NCc2ccc(OC(F)(F)F)cc2)c(-c2cn(C)cn2)c1` [I-60, N-Methyl-3-(1-methyl-1H-imidazol-4-yl)-4-((4-(trifluoromethoxy)benzyl)amino)benzenesulfonamide], the pEC50 in the test on H226 and with TEAD was 6.30 to 7.00 in each case.

As for `CNS(=O)(=O)c1ccc(NCc2ccccc2)c(-c2nnc(C)o2)c1` [I-61, 4-(Benzylamino)-N-methyl-3-(5-methyl-1,3,4-oxadiazol-2-yl)benzenesulfonamide], the pEC50 in the test on H226 is 6.30 to 7.00; with TEAD, less than 6.30.

Consider `CNS(=O)(=O)c1ccc(Nc2cc(C(F)(F)F)ccn2)c(-c2nnc(C)o2)c1` [I-62, N-Methyl-3-(5-methyl-1,3,4-oxadiazol-2-yl)-4-[[4-(trifluoromethyl)-2-pyridyl]amino]benzenesulfonamide], for which the pEC50 with H226 and with TEAD was 6.30 to 7.00 each time.

As to `CNS(=O)(=O)c1ccc(N[C@H](C)c2cccc(C(F)(F)F)c2)c(-c2cn(C)cn2)c1` [I-63, N-Methyl-3-(1-methylimidazol-4-yl)-4-[[(1R)-1-[3-(trifluoromethyl)phenyl]ethyl]amino]benzenesulfonamide], the pEC50 in the test on H226 and with TEAD was 6.30 to 7.00 each time.

With `CNS(=O)(=O)c1ccc(NCc2ccc3c(c2)OCO3)c(-c2cn(C)cn2)c1` [I-64, 4-(1,3-Benzodioxol-5-ylmethylamino)-N-methyl-3-(1-methylimidazol-4-yl)benzenesulfonamide], the pEC50 with H226 and with TEAD was 6.30 to 7.00 in each case.

Consider `CCNS(=O)(=O)c1ccc(Nc2ccc(C(F)(F)F)cn2)c(-c2cn(C)cn2)c1` [I-65, N-ethyl-3-(1-methylimidazol-4-yl)-4-[[5-(trifluoromethyl)-2-pyridyl]amino]benzenesulfonamide], for which the pEC50 with H226 and in the test on TEAD was greater than 7.00 in each case.

Turning to `CC(C)NS(=O)(=O)c1ccc(Nc2cc(C(F)(F)F)ccn2)c(-c2cn(C)cn2)c1` [I-66, N-Isopropyl-3-(1-methylimidazol-4-yl)-4-[[4-(trifluoromethyl)-2-pyridyl]amino]benzenesulfonamide], the pEC50 in the test with H226 was 6.30 to 7.00; in the test on TEAD, less than 6.30.

As for `CNS(=O)(=O)c1ccc(Nc2ccc(C(F)(F)F)cn2)c(-c2cn(C3CCC3)cn2)c1` [I-67, 3-(1-Cyclobutylimidazol-4-yl)-N-methyl-4-[[5-(trifluoromethyl)-2-pyridyl]amino]benzenesulfonamide], the pEC50 in the test on H226 and in the test with TEAD was greater than 7.00 throughout.

Take `CNS(=O)(=O)c1ccc(NCc2ccc(C(F)(F)F)cc2F)c(-c2cn(C)cn2)c1` [I-68, 4-[[2-Fluoro-4-(trifluoromethyl)phenyl]methylamino]-N-methyl-3-(1-methylimidazol-4-yl)benzenesulfonamide]: the pEC50 in the test with H226 and in the test with TEAD was greater than 7.00 in each case.

Consider `CNS(=O)(=O)c1ccc(NCc2cccc(OC(F)(F)F)c2)c(-c2cn(C)cn2)c1` [I-69, A-Methyl-3-(1-methylimidazol-4-yl)-4-[[3-(trifluoromethoxy)phenyl]methylamino]benzenesulfonamide], for which the pEC50 was greater than 7.00 in the test with H226 and 6.30 to 7.00 in the test on TEAD.

Turning to `CNS(=O)(=O)c1ccc(NCc2ccc(C(F)(F)F)cn2)c(-c2cn(C)cn2)c1` [I-70, N-Methyl-3-(1-methylimidazol-4-yl)-4-[[5-(trifluoromethyl)-2-pyridyl]methylamino]benzenesulfonamide], the pEC50 was greater than 7.00 with H226 and 6.30 to 7.00 in the test with TEAD.

Consider `CNS(=O)(=O)c1ccc(Nc2ccc(C(F)(F)F)cn2)c(-c2cn(Cc3ccccc3)cn2)c1` [I-71, 3-(1-Benzylimidazol-4-yl)-N-methyl-4-[[5-(trifluoromethyl)-2-pyridyl]amino]benzenesulfonamide], for which the pEC50 in the test on H226 and with TEAD was 6.30 to 7.00 each time.

`CNS(=O)(=O)c1ccc(NCc2ccc3scnc3c2)c(-c2cn(C)cn2)c1` [I-72, 4-(1,3-Benzothiazol-5-ylmethylamino)-N-methyl-3-(1-methylimidazol-4-yl)benzenesulfonamide]: the values for the negative logarithm of the EC50 (pEC50) in the test with H226 and in the test on TEAD were 6.30 to 7.00 and greater than 7.00, respectively.

As to `CNS(=O)(=O)c1ccc(NCc2ccc3ncsc3c2)c(-c2cn(C)cn2)c1` [I-73, 4-(1,3-Benzothiazol-6-ylmethylamino)-N-methyl-3-(1-methylimidazol-4-yl)benzenesulfonamide], the pEC50 in the test with H226 is 6.30 to 7.00; with TEAD it was less than 6.30.

With `CNS(=O)(=O)c1ccc(NCc2ccccc2C(F)(F)F)c(-c2cn(C)cn2)c1` [I-74, N-Methyl-3-(1-methylimidazol-4-yl)-4-[[2-(trifluoromethyl)phenyl]methylamino]benzenesulfonamide], the pEC50 with H226 and with TEAD was greater than 7.00 in each case.

For the molecule `CNS(=O)(=O)c1ccc(Nc2ccc(C(F)(F)F)nc2)c(-c2cn(C)cn2)c1` [I-75, N-Methyl-3-(1-methylimidazol-4-yl)-4-[[6-(trifluoromethyl)-3-pyridyl]amino]benzenesulfonamide], the pEC50 with H226 and in the test on TEAD was greater than 7.00 throughout.

For `CNS(=O)(=O)c1ccc(NCc2ccc(C(F)(F)F)nc2)c(-c2cn(C)cn2)c1` [I-76, N-Methyl-3-(1-methyl-1H-imidazol-4-yl)-4-(((6-(trifluoromethyl)pyridin-3-yl)methyl)amino)benzenesulfonamide], the pEC50 in the test on H226 is 6.30 to 7.00; in the test on TEAD, less than 6.30.

As for `CNS(=O)(=O)c1ccc(Nc2ccc(C(F)(F)F)nn2)c(-c2cn(C)cn2)c1` [I-77, N-Methyl-3-(1-methylimidazol-4-yl)-4-[[6-(trifluoromethyl)pyridazin-3-yl]amino]benzenesulfonamide], the pEC50 in the test with H226 is 6.30 to 7.00; with TEAD, less than 6.30.

As for `CNS(=O)(=O)c1ccc(Nc2ncc(C(F)(F)F)cn2)c(-c2cn(C)cn2)c1` [I-78, N-Methyl-3-(1-methylimidazol-4-yl)-4-[[5-(trifluoromethyl)pyrimidin-2-yl]amino]benzenesulfonamide], the pEC50 in the test on H226 and in the test with TEAD was greater than 7.00 in each case.

As for `CNS(=O)(=O)c1ccc(Nc2ccc(C3CC3)cn2)c(-c2cn(C)cn2)c1` [I-79, 4-[(5-Cyclopropyl-2-pyridyl)amino]-N-methyl-3-(1-methylimidazol-4-yl)benzenesulfonamide], the pEC50 is greater than 7.00 in the test with H226 and 6.30 to 7.00 with TEAD.

As to `CNS(=O)(=O)c1ccc(Nc2ccc(C(C)(C)C)cn2)c(-c2cn(C)cn2)c1` [I-80, 4-[(5-tert-Butyl-2-pyridyl)amino]-N-methyl-3-(1-methylimidazol-4-yl)benzenesulfonamide], the negative logarithm of the EC50 (pEC50) in the test on H226 and in the test with TEAD was greater than 7.00 in each case.

For the molecule `CNS(=O)(=O)c1ccc(Nc2ccc(C(F)(F)F)cn2)c(-c2cn(Cc3ccccc3F)cn2)c1` [I-81, 3-[1-[(2-Fluorophenyl)methyl]imidazol-4-yl]-N-methyl-4-[[5-(trifluoromethyl)-2-pyridyl]amino]benzenesulfonamide], the pEC50 in the test on H226 and in the test with TEAD was greater than 7.00 throughout.

As for `CNS(=O)(=O)c1ccc(Nc2ccc(C(F)(F)F)cc2)c(-c2cn(C)cn2)c1` [I-82, N-Methyl-3-(1-methyl-1H-imidazol-4-yl)-4-((4-(trifluoromethyl)phenyl)amino)benzenesulfonamide], the pEC50 in the test on H226 and in the test on TEAD was greater than 7.00 each time.

As to `CNS(=O)(=O)c1ccc(N[C@@H](C)c2cccc(C(F)(F)F)c2)c(-c2cn(C)cn2)c1` [I-83, N-Methyl-3-(1-methylimidazol-4-yl)-4-[[(1S)-1-[3-(trifluoromethyl)phenyl]ethyl]amino]benzenesulfonamide], the pEC50 was greater than 7.00 in the test with H226 and 6.30 to 7.00 in the test on TEAD.
